In patent US20250011368A1, “DLL3 TARGETING PEPTIDES AND CONSTRUCTS THEREOF” (MARIANA ONCOLOGY INC., priority 2023, published 2025):
Numbered stars: 1 amine (or outer) side, 2 acyl side, 3 side chain; on linkers, the order of the positions; unused ones are H or OH. Bridge positions count the residues as written; N and C are the ends. Square brackets hold non-standard residues; d marks the D form. Side chains are listed from the residue outwards. Peptide text beside a SMILES is read from it. * marks the point of attachment. ξ: configuration not given here. PEG24 = NCCOCCOCCOCCOCCOCCOCCOCCOCCOCCOCCOCCOCCOCCOCCOCCOCCOCCOCCOCCOCCOCCOCCOCCOCCC(=O)O; Ala(piperidin-4-yl) = O=C([C@H](CC1CCN([*:3])CC1)N[*:1])[*:2]; DOTA = O=C(O)CN1CCN(CC(=O)O)CCN(CC(=O)*)CCN(CC(=O)O)CC1; Trp(7-Me) = Cc1cccc2c(C[C@H](N)C(=O)O)c[nH]c12; γGlu = O=C(O)[C@H](CCC(=O)[*:2])N[*:1]; 2Nal = N[C@@H](Cc1ccc2ccccc2c1)C(=O)O; Palmitoyl = CCCCCCCCCCCCCCCC(=O)*; αMeI = CC[C@H](C)[C@](C)(N)C(=O)O; Trx = NC[C@H]1CC[C@H](C(=O)O)CC1; 3Pal = N[C@@H](Cc1cccnc1)C(=O)O; Chg = N[C@H](C(=O)O)C1CCCCC1; ξαMeD = CC(N)(CC(=O)O)C(=O)O; Lauroyl = CCCCCCCCCCCC(=O)*; 4Amb = NCc1ccc(C(=O)O)cc1; Orn = NCCC[C@H](N)C(=O)O; Ahx = NCCCCCC(=O)O; Sar = CNCC(=O)O

Molecular target: T1, human DLL3 (Homo sapiens, UniProt Q9NYJ7)
T1 sequence (Q9NYJ7 27-618): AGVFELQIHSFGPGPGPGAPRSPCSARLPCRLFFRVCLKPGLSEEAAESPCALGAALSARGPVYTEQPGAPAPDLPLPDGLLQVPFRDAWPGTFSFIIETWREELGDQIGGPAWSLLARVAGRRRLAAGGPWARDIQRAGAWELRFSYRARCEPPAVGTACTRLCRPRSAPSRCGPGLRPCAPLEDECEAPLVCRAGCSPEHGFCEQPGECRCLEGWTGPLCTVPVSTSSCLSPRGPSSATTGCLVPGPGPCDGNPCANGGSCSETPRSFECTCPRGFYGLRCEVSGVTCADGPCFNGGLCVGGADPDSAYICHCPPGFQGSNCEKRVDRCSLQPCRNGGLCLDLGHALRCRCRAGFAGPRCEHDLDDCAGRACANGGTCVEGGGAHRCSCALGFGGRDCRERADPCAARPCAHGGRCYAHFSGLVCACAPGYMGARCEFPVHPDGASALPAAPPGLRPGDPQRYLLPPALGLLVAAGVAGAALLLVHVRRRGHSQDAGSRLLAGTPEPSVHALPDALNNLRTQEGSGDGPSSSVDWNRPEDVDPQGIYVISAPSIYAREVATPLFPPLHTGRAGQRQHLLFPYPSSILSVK
Experiment: Affinity determination by Surface Plasmon Resonance (SPR)
Type: binding
Details: 25° C., biotinylated human DLL3 immobilized on streptavidin sensor chip, 1:1 binding model; read-out: SPR KD
Summary of the method: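 Kinetic and affinity constants were derived by fitting sensorgrams to a 1:1 binding model. Graded compound concentrations flowed at 100 μL/minute in 20 mM phosphate running buffer with 2% DMSO over streptavidin-immobilized biotinylated human DLL3, reference-subtracted.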

`CC[C@H](C)[C@H](NC(=O)[C@@H](NC(=O)[C@H](Cc1c[nH]c2ccccc12)NC(C)=O)[C@@H](C)O)C(=O)N[C@H]1CSSC[C@@H](C(=O)N[C@@H](Cc2c[nH]c3ccccc23)C(=O)N2CCC[C@H]2C(=O)N[C@H](CCCCNC(=O)CN2CCN(CC(=O)O)CCN(CC(=O)O)CCN(CC(=O)O)CC2)C(N)=O)NC(=O)[C@H](CC(=O)O)NC(=O)[C@H](Cc2cccnc2)NC(=O)[C@H](Cc2ccc3ccccc3c2)NC(=O)[C@H](CC(N)=O)NC(=O)[C@H](CC(N)=O)NC1=O` [compound 366, Ac-W-T-I-C(3)-N-N-(2Nal)-(3Pya)-D-C(3)-W-P-[D-Lys(DOTA)]-NH2] (Ac-WTICNN[2Nal][3Pal]DCWP[dK](DOTA)-NH2; disulfide 4-10) and `CC[C@H](C)[C@H](NC(=O)[C@@H](NC(=O)[C@H](Cc1c[nH]c2ccccc12)NC(C)=O)[C@@H](C)O)C(=O)N[C@H]1CSSC[C@@H](C(=O)N[C@@H](Cc2c[nH]c3ccccc23)C(=O)N2CCC[C@H]2C(=O)N[C@H](CCCCNC(=O)CN2CCN(CC(=O)O)CCN(CC(=O)O)CCN(CC(=O)O)CC2)C(=O)O)NC(=O)[C@H](CC(=O)O)NC(=O)[C@H](CCCN)NC(=O)[C@H](Cc2ccc3ccccc3c2)NC(=O)[C@H](CC(N)=O)NC(=O)[C@H](CC(N)=O)NC1=O` [compound 376, Ac-W-T-I-C(3)-N-N-(2Nal)-Orn-D-C(3)-W-P-[D-Lys(DOTA)]-NH2] (Ac-WTICNN[2Nal][Orn]DCWP[dK](DOTA)-OH; disulfide 4-10) cannot be ordered by Kd: less than 1 nM for the first, less than 1 nM for the second.

`CCCCCCCCCCCC(=O)NCCCC[C@@H]1NC(=O)[C@H](Cc2ccc3ccccc3c2)NC(=O)[C@H](CC(N)=O)NC(=O)[C@H](CC(N)=O)NC(=O)[C@@H](NC(=O)[C@@H](NC(=O)[C@@H](NC(=O)[C@H](Cc2c[nH]c3ccccc23)NC(C)=O)[C@@H](C)O)[C@@H](C)CC)CSSC[C@@H](C(=O)N[C@@H](Cc2c[nH]c3ccccc23)C(=O)N2CCC[C@H]2C(=O)N[C@H](CCCCNC(=O)CC[C@H](NC(=O)CC[C@H](NC(=O)CC[C@H](NC(=O)CN2CCN(CC(=O)O)CCN(CC(=O)O)CCN(CC(=O)O)CC2)C(=O)O)C(=O)O)C(=O)O)C(N)=O)NC(=O)[C@H](CC(=O)O)NC1=O` [compound 368, Ac-W-T-I-C(3)-N-N-(2Nal)-K(C12)-D-C(3)-W-P-[D-Lys(gE-gE-gE-DOTA)]-NH2] (Ac-WTICNN[2Nal]K(Lauroyl)DCWP[dK]([γGlu-γGlu-γGlu-DOTA])-NH2; disulfide 4-10) and `CCCCCCCCCCCC(=O)NCCCC[C@@H]1NC(=O)[C@H](Cc2ccc3ccccc3c2)NC(=O)[C@H](CC(N)=O)NC(=O)[C@H](CC(N)=O)NC(=O)[C@@H](NC(=O)[C@@H](NC(=O)[C@@H](NC(=O)[C@H](Cc2c[nH]c3c(C)cccc23)NC(C)=O)[C@@H](C)O)[C@@H](C)CC)CSSC[C@@H](C(=O)N[C@@H](Cc2c[nH]c3ccccc23)C(=O)N2CCC[C@H]2C(=O)N[C@H](CCCCNC(=O)CN2CCN(CC(=O)O)CCN(CC(=O)O)CCN(CC(=O)O)CC2)C(N)=O)NC(=O)[C@H](CC(=O)O)NC1=O` [compound 369, Ac-(7Me-W)-T-I-C(3)-N-N-(2Nal)-H-D-C(3)-W-P-[D-Lys(DOTA)]-NH2] (Ac-[Trp(7-Me)]TICNN[2Nal]K(Lauroyl)DCWP[dK](DOTA)-NH2; disulfide 4-10) fall in the same range of Kd: 1 to 10 nM for the first, 1 to 10 nM for the second.

`CC[C@H](C)[C@H](NC(=O)[C@@H](NC(=O)[C@H](Cc1c[nH]c2ccccc12)NC(C)=O)[C@@H](C)O)C(=O)N[C@H]1CSSC[C@@H](C(=O)N[C@@H](Cc2c[nH]c3ccccc23)C(=O)N2CCC[C@H]2C(=O)N(C)CC(=O)N(C)CC(=O)N(C)CC(=O)N(C)CC(=O)N(C)CC(=O)N[C@H](CCCCNC(=O)CN2CCN(CC(=O)O)CCN(CC(=O)O)CCN(CC(=O)O)CC2)C(N)=O)NC(=O)[C@H](CC(=O)O)NC(=O)[C@H](Cc2cnc[nH]2)NC(=O)[C@H](Cc2ccc3ccccc3c2)NC(=O)[C@H](CC(N)=O)NC(=O)[C@H](CC(N)=O)NC1=O` [compound 371, Ac-W-T-I-C(3)-N-N-(2Nal)-H-D-C(3)-W-P-(Sar)5-[D-Lys(DOTA)]-NH2] (Ac-WTICNN[2Nal]HDCWP[Sar][Sar][Sar][Sar][Sar][dK](DOTA)-NH2; disulfide 4-10) and `CC[C@H](C)[C@H](NC(=O)[C@@H](NC(=O)[C@H](Cc1c[nH]c2ccccc12)NC(C)=O)[C@@H](C)O)C(=O)N[C@H]1CSSC[C@@H](C(=O)N[C@@H](Cc2c[nH]c3ccccc23)C(=O)N2CCC[C@H]2C(=O)NCCCCCC(=O)NCCCCCC(=O)N[C@H](CCCCNC(=O)CN2CCN(CC(=O)O)CCN(CC(=O)O)CCN(CC(=O)O)CC2)C(N)=O)NC(=O)[C@H](CC(=O)O)NC(=O)[C@H](Cc2cnc[nH]2)NC(=O)[C@H](Cc2ccc3ccccc3c2)NC(=O)[C@H](CC(N)=O)NC(=O)[C@H](CC(N)=O)NC1=O` [compound 372, Ac-W-T-I-C(3)-N-N-(2Nal)-H-D-C(3)-W-P-(Ahx)2-[D-Lys(DOTA)]-NH2] (Ac-WTICNN[2Nal]HDCWP[Ahx][Ahx][dK](DOTA)-NH2; disulfide 4-10) cannot be ordered by Kd: less than 1 nM for the first, less than 1 nM for the second.

`CC[C@H](C)[C@H](NC(=O)[C@@H](NC(=O)[C@H](Cc1c[nH]c2ccccc12)NC(C)=O)[C@@H](C)O)C(=O)N[C@H]1CSSC[C@@H](C(=O)N[C@@H](Cc2c[nH]c3ccccc23)C(=O)N2CCC[C@H]2C(=O)NC[C@H]2CC[C@H](C(=O)NC[C@H]3CC[C@H](C(=O)N[C@H](CCCCNC(=O)CN4CCN(CC(=O)O)CCN(CC(=O)O)CCN(CC(=O)O)CC4)C(N)=O)CC3)CC2)NC(=O)[C@H](CC(=O)O)NC(=O)[C@H](Cc2cnc[nH]2)NC(=O)[C@H](Cc2ccc3ccccc3c2)NC(=O)[C@H](CC(N)=O)NC(=O)[C@H](CC(N)=O)NC1=O` [compound 373, Ac-W-T-I-C(3)-N-N-(2Nal)-H-D-C(3)-W-P-(Cyx)2-[D-Lys(DOTA)]-NH2] (Ac-WTICNN[2Nal]HDCWP[Trx][Trx][dK](DOTA)-NH2; disulfide 4-10) and `CC[C@H](C)[C@H](NC(=O)[C@@H](NC(=O)[C@H](Cc1c[nH]c2ccccc12)NC(C)=O)[C@@H](C)O)C(=O)N[C@H]1CSSC[C@@H](C(=O)N[C@@H](Cc2c[nH]c3ccccc23)C(=O)N2CCC[C@H]2C(=O)NCc2ccc(C(=O)N[C@H](CCCCNC(=O)CN3CCN(CC(=O)O)CCN(CC(=O)O)CCN(CC(=O)O)CC3)C(N)=O)cc2)NC(=O)[C@H](CC(=O)O)NC(=O)[C@H](Cc2c[nH]cn2)NC(=O)[C@H](Cc2ccc3ccccc3c2)NC(=O)[C@H](CC(N)=O)NC(=O)[C@H](CC(N)=O)NC1=O` [compound 374, Ac-W-T-I-C(3)-N-N-(2Nal)-H-D-C(3)-W-P-(AMBX)-[D-Lys(DOTA)]-NH2] (Ac-WTICNN[2Nal]HDCWP[4Amb][dK](DOTA)-NH2; disulfide 4-10) cannot be ordered by Kd: less than 1 nM for the first, less than 1 nM for the second.

Compared with `CC[C@H](C)[C@](C)(NC(=O)[C@@H](NC(=O)[C@H](Cc1c[nH]c2ccccc12)NC(C)=O)[C@@H](C)O)C(=O)N[C@H]1CSSC[C@@H](C(=O)N[C@@H](Cc2c[nH]c3ccccc23)C(=O)N2CCC[C@H]2C(=O)N[C@H](CCCCNC(=O)CN2CCN(CC(=O)O)CCN(CC(=O)O)CCN(CC(=O)O)CC2)C(N)=O)NC(=O)[C@H](CC(=O)O)NC(=O)[C@H](Cc2cnc[nH]2)NC(=O)[C@H](Cc2c[nH]c3ccccc23)NC(=O)[C@H](CC(N)=O)NC(=O)[C@H](CC(N)=O)NC1=O` [compound 409, Ac-W-T-(aMe-I)-C(3)-N-N-W-H-D-C(3)-W-P-[D-Lys(DOTA)]-NH2] (Ac-WT[αMeI]CNNWHDCWP[dK](DOTA)-NH2; disulfide 4-10), `CC[C@H](C)[C@H](NC(=O)[C@@H](NC(=O)[C@H](Cc1c[nH]c2ccccc12)NC(C)=O)[C@@H](C)O)C(=O)N[C@H]1CSSC[C@@H](C(=O)N[C@@H](Cc2c[nH]c3ccccc23)C(=O)N2CCC[C@H]2C(=O)N[C@H](CCCCNC(=O)CN2CCN(CC(=O)O)CCN(CC(=O)O)CCN(CC(=O)O)CC2)C(N)=O)NC(=O)C(C)(CC(=O)O)NC(=O)[C@H](Cc2cnc[nH]2)NC(=O)[C@H](Cc2c[nH]c3ccccc23)NC(=O)[C@H](CC(N)=O)NC(=O)[C@H](CC(N)=O)NC1=O` (stereo partly drawn) [compound 410, Ac-W-T-I-C(3)-N-N-W-H-(aMe-D)-C(3)-W-P-[D-Lys(DOTA)]-NH2] (Ac-WTICNNWH[ξαMeD]CWP[dK](DOTA)-NH2; disulfide 4-10) is lower in Kd: 10 to 100 nM for the first, 1 to 10 nM for the second. The second binds more tightly here.

`CCCCCCCCCCCCCCCC(=O)N[C@@H](CCC(=O)NCCOCCOCCOCCOCCOCCOCCOCCOCCOCCOCCOCCOCCOCCOCCOCCOCCOCCOCCOCCOCCOCCOCCOCCOCCC(=O)NCCCC[C@@H]1NC(=O)[C@H](Cc2ccc3ccccc3c2)NC(=O)[C@H](CC(N)=O)NC(=O)[C@H](CC2CCNCC2)NC(=O)[C@@H](NC(=O)[C@@H](NC(=O)[C@@H](NC(=O)[C@H](Cc2c[nH]c3ccccc23)NC(C)=O)[C@@H](C)O)C2CCCCC2)CSSC[C@@H](C(=O)N[C@@H](Cc2c[nH]c3ccccc23)C(=O)N2CCC[C@H]2C(=O)N[C@H](CCCCNC(=O)CN2CCN(CC(=O)O)CCN(CC(=O)O)CCN(CC(=O)O)CC2)C(N)=O)NC(=O)[C@H](CC(=O)O)NC1=O)C(=O)O` [compound 426, Ac-WT-(Chg)-C(3)-[3-(4-piperidinyl)-Ala]-N-(2Nal)-Lys(PEG24-[gE(C16)]-OH)-D-C(3)-W-P-[D-Lys(DOTA)]-NH2] (Ac-WT[Chg]C[Ala(piperidin-4-yl)]N[2Nal]K([PEG24-γGlu-Palmitoyl])DCWP[dK](DOTA)-NH2; disulfide 4-10) showed a Kd of 1 to 10 nM.
